We go through 38 molecules from paper PMC7659976, “Benzobicyclo[3.2.1]octene Derivatives as a New Class of Cholinesterase Inhibitors” (Molecules, 2020).

As usually defined, the IC50 is the concentration that inhibits the measured activity by half.

Assay [1] concerns the target BChE derived from purified human plasma (Homo sapiens, UniProt P06276). Nature of the assay: biochemical. The settings on record: 0.1 M phosphate buffer pH 7.4, 25 °C, ATCh substrate.
For another assay, the target named is recombinant human AChE (Homo sapiens, UniProt P22303). Nature of the assay: biochemical. The assay is classed as biochemical. The settings on record: for IC50: 0.1 M phosphate buffer pH 7.4, 25 °C, ATCh substrate, read-out: Inhibition of human AChE, IC50 ± SEM.
The next assay has as its system AChE. Details: method as in doi:10.1016/j.molstruc.2018.05.027, doi:10.3906/kim-1903-74. The settings on record: photoproducts of Figure 1; read-out: AChE inhibition IC50; cited from earlier work.
Assay [2] relates to BChE. Also noted: method as in doi:10.1016/j.molstruc.2018.05.027, doi:10.3906/kim-1903-74. The note with it: photoproducts of Figure 1; read-out: BChE inhibition IC50; cited from earlier work.
Assay [3] has as its system BChE. It counts as biochemical. The settings on record: compared to huperzine A.
Where [4] appears, read: Table 1, benzobicyclo[3.2.1]octadiene benzylamines, read-out: Inhibition of BChE, IC50 ± SEM.
[5] abbreviates: Table 2, oximes and oxime ethers, read-out: Inhibition of BChE, IC50 ± SEM.
Setting [6] is: Table 4, acylated furo-benzobicyclo[3.2.1]octenes/octadienes.
The mark [7] stands for this setting: Table 4, acylated furo-benzobicyclo[3.2.1]octenes/octadienes, read-out: Inhibition of human BChE, IC50 ± SEM.
The mark [8] stands for this setting: Table 3, epoxides, alcohols and ethers.
[9] abbreviates: Table 3, epoxides, alcohols and ethers, read-out: Inhibition of human BChE, IC50 ± SEM.

Read-outs that look alike come from different tables or passages of the source.

recombinant human AChE, sequence (P22303 32-614): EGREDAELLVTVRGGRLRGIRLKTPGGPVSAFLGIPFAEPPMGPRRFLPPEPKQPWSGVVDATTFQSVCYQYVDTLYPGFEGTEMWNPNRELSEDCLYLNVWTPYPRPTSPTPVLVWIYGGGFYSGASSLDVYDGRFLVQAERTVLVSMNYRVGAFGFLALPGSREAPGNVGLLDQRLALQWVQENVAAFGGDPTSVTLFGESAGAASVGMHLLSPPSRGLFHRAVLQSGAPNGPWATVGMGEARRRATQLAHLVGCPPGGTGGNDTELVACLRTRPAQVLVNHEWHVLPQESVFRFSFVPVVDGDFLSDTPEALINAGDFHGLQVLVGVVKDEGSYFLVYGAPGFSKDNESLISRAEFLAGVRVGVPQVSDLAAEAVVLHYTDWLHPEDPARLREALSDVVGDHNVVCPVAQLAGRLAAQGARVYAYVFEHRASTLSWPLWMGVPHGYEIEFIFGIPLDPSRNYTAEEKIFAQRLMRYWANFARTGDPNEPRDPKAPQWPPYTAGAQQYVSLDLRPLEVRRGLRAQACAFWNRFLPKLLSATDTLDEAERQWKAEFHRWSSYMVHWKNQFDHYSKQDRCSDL
BChE derived from purified human plasma, sequence (P06276 29-602): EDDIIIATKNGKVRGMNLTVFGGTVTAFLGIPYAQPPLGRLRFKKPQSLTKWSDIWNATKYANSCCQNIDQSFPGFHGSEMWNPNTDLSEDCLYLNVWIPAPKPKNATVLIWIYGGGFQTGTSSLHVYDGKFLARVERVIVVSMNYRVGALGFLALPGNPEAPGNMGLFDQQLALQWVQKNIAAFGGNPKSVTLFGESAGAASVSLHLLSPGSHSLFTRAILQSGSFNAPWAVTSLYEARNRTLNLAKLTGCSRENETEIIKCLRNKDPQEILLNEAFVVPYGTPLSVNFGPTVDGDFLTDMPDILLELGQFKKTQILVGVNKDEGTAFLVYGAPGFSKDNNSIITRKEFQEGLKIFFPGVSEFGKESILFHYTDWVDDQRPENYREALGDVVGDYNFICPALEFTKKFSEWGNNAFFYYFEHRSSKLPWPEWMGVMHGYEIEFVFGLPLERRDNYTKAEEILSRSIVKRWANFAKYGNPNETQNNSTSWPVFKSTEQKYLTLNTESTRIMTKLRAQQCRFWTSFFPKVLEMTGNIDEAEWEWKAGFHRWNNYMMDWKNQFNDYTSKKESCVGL

On to `Clc1ccc(C2=CCC3CC2c2ccccc23)cc1` (stereo not drawn) [Compound 1], for which the IC50 in assay [1] (setting [4]) stood at 260 ± 120 µM. Take `Cc1ccccc1CNc1ccc(C2=CCC3CC2c2ccccc23)cc1` (stereo not drawn) [Compound 9]: in assay [1] (setting [4]), the IC50 came out at 240 ± 210 µM. `COc1ccc(CNc2ccc(C3=CCC4CC3c3ccccc34)cc2)cc1` (stereo not drawn) [Compound 17]: the IC50 in assay [1] (setting [4]) came to 120 ± 64 µM. `Nc1ccc(C2=CCC3CC2c2ccccc23)cc1` (stereo not drawn) [Compound 20]: the IC50 in assay [1] (setting [4]) is 182 ± 98 µM. Turning to `CCO/N=C/c1cc2c(o1)CC1CC2c2ccccc21` (stereo not drawn) [Compound 26], in assay [1] (setting [5]), the IC50 amounted to 380 ± 250 µM. For `CCCO/N=C\c1cc2c(o1)CC1CC2c2ccccc21` (stereo not drawn) [Compound 27, (Z)-9,10-Dihydro-4H-4,9-methanobenzo[4,5]cyclohepta[1,2-b]furan-2-carbaldehyde O-propyl oxime], the 50% inhibitory concentration (IC50) in assay [1] (setting [5]) was 74 ± 19 µM.

With `CC(C)O/N=C/c1cc2c(o1)CC1CC2c2ccccc21` (stereo not drawn) [Compound 28], the IC50 in assay [1] (setting [5]) stood at 24 ± 3 µM. With `C=CCO/N=C/c1cc2c(o1)CC1CC2c2ccccc21` (stereo not drawn) [Compound 29], in assay [1] (setting [5]), the half-maximal inhibitory concentration (IC50) is 100 ± 32 µM. On to `CC(=O)O/N=C/c1cc2c(o1)CC1CC2c2ccccc21` (stereo not drawn) [Compound 30], for which, in assay [1] (setting [5]), the IC50 worked out at 61 ± 36 µM. The same measure, in the same setting: in the case of `CC(C)O/N=C/C/C=C1\C(O)=CC2CC1c1ccccc12` (stereo not drawn) [Compound 31] it was 90 ± 40 µM; in that of `CC(C)O/N=C/C/C=C1\C(O)CC2CC1c1ccccc12` (stereo not drawn) [Compound 32], 31 ± 4 µM; in that of `C=CCCO/N=C/C(=O)/C=C1\C=CC2CC1c1ccccc12` (stereo not drawn) [Compound 33], 140 ± 49 µM.

Regarding `CC(=O)O/N=C/C/C=C1\C(O)CC2CC1c1ccccc12` (stereo not drawn) [Compound 34], the IC50 in assay [1] (setting [5]) is 78 ± 31 µM.

Turning to `O=C1CC2CC(/C1=C/C/C=N/OCCCCl)c1ccccc12` (stereo not drawn) [Compound 35], the IC50 in assay [1] (setting [5]) stood at 60 ± 11 µM. Consider `C/C(O)=C/C=C1\C(O)CC2CC1c1ccccc12` [Compound 51, (5R,9R,Z)-6-((Z)-3-Hydroxybut-2-ene-1-ilydene)-6,7,8,9-tetrahydro-5H-5,9-methano-benzo[7]annulen-7-ol], for which the results for the IC50 (at recombinant human AChE (setting [6]); in assay [1] (setting [7])) were 8.3 ± 4 µM and above 300 µM, respectively.

As to `CCC(=O)C/C=C1\C(O)=CC2CC1c1ccccc12` [Compound 53, (Z)-1-((5R,9R)-7-Hydroxy-5,9-dihydro-6H-5,9-methanobenzo[7]annulen-6-ilydene)-pentan-3-one], the IC50 was found to be 188 ± 133 µM at recombinant human AChE (setting [6]) and 146 ± 30 µM in assay [1] (setting [7]). Take `Clc1ccc(C2C=CC3CC2c2ccccc23)cc1` (stereo not drawn) [endo-1, 11-(4-Chlorophenyl)tricyclo[6.3.1.0^²,7]dodeca-2,4,6,9-tetraene]: the IC50 in the assay with AChE is 17.5 µM. As to `C1=CC(c2ccncc2)C2CC1c1ccccc12` (stereo not drawn) [endo-2], the IC50 in the assay with BChE [2] was 8.8 µM. In the assay on BChE [3], the “Potency as BChE inhibitor in comparison to huperzine A” value was “about five times more potent”.

With `C1=C[C@H](c2ccc(NCc3ccccc3)cc2)[C@H]2C[C@@H]1c1ccccc12` [endo-4, N-Benzyl-4-((5R,6S,9S)-6,9-dihydro-5H-5,9-methanobenzo[7]annulen-6-yl)aniline], in assay [1] (setting [4]), the concentration for half-maximal inhibition (IC50) is 110 ± 77 µM. Take `C1=C[C@H](c2ccc(NCc3ccco3)cc2)[C@H]2C[C@@H]1c1ccccc12` [endo-7, 4-((5R,6S,9S)-6,9-Dihydro-5H-5,9-methanobenzo[7]annulen-6-yl)-N-(fur-2-ylmethyl)aniline]: in assay [1] (setting [4]), the concentration for half-maximal inhibition (IC50) was at least 500 µM. For the molecule `C1=C[C@H](c2ccc(NCc3cccs3)cc2)[C@H]2C[C@@H]1c1ccccc12` [endo-8, 4-((5R,6S,9S)-6,9-dihydro-5H-5,9-methanobenzo[7]annulen-6-yl)-N-(thien-2-ylmethyl)aniline], the IC50 in assay [1] (setting [4]) is above 500 µM. In the case of `Cc1ccccc1CNc1ccc(C2C=CC3CC2c2ccccc23)cc1` (stereo not drawn) [endo-9], the IC50 in assay [1] (setting [4]) is above 500 µM.

For the molecule `Cc1cccc(CNc2ccc(C3C=CC4CC3c3ccccc34)cc2)c1` (stereo not drawn) [endo-10], the IC50 in assay [1] (setting [4]) is 63 ± 13 µM. Consider `Cc1ccc(CNc2ccc(C3C=CC4CC3c3ccccc34)cc2)cc1` (stereo not drawn) [endo-11], for which the IC50 in assay [1] (setting [4]) was at least 500 µM. Turning to `Clc1cccc(CNc2ccc(C3C=CC4CC3c3ccccc34)cc2)c1` (stereo not drawn) [endo-13], the IC50 in assay [1] (setting [4]) is above 500 µM.

Turning to `Clc1ccc(CNc2ccc(C3C=CC4CC3c3ccccc34)cc2)cc1` (stereo not drawn) [endo-14], the IC50 in assay [1] (setting [4]) is above 500 µM. Same read-out and setting: in the case of `COc1ccccc1CNc1ccc(C2C=CC3CC2c2ccccc23)cc1` (stereo not drawn) [endo-15] it was above 500 µM; in that of `COc1cccc(CNc2ccc(C3C=CC4CC3c3ccccc34)cc2)c1` (stereo not drawn) [endo-16], above 500 µM; in that of `COc1ccc(CNc2ccc(C3C=CC4CC3c3ccccc34)cc2)cc1` (stereo not drawn) [endo-17], above 500 µM. On to `Fc1ccccc1CNc1ccc(C2C=CC3CC2c2ccccc23)cc1` (stereo not drawn) [endo-18], for which the IC50 in assay [1] (setting [4]) is above 500 µM.

With `Fc1cccc(CNc2ccc(C3C=CC4CC3c3ccccc34)cc2)c1` (stereo not drawn) [endo-19], the IC50 in assay [1] (setting [4]) is above 500 µM.

On to `Fc1ccc(CNc2ccc(C3C=CC4CC3c3ccccc34)cc2)cc1` (stereo not drawn) [endo-20], for which the IC50 in assay [1] (setting [4]) was above 500 µM. Take `c1ccc([C@H]2C3OC3[C@@H]3C[C@H]2c2ccccc23)cc1` (stereo partly drawn) [endo-38, (2R,7R,8S)-8-Phenyl-1a,7,8,8a-tetrahydro-2H-2,7-methanobenzo[4,5]cyclohepta[1,2-b]-oxirene]: the “Potency for AChE relative to BChE (fold lower)” value on recombinant human AChE (AChE versus BChE) worked out at 3 fold. Moreover, the 50% inhibitory concentration (IC50) is 62 ± 8 µM on recombinant human AChE (setting [8]) and 22 ± 5 µM in assay [1] (setting [9]). With `COc1ccc([C@H]2[C@@H]3OC3[C@@H]3C[C@H]2c2ccccc23)cc1` (stereo partly drawn) [endo-39, (2R,7R,8S,8as)-8-(4-Methoxyphenyl)-1a,7,8,8a-tetrahydro-2H-2,7-methanobenzo[4,5]cyclohepta[1,2-b]oxirene], the IC50 at recombinant human AChE (setting [8]) is above 100 µM; in assay [1] (setting [9]) it was 33 ± 6 µM.

`CCCOC1C[C@@H]2C[C@@H](c3ccccc32)[C@H]1c1ccccc1` (stereo partly drawn) [endo-43, (5R,6S,9S)-6-Phenyl-7-propoxy-6,7,8,9-tetrahydro-5H-5,9-methanobenzo[7]annulene]: the values for the IC50 (at recombinant human AChE (setting [8]); in assay [1] (setting [9])) were above 100 µM and 17 ± 2 µM, respectively.

Regarding `OCCCOC1CC2CC(c3ccccc32)C1c1ccccc1` [endo-45, 3-(((5R,6S,9S)-6-Phenyl-6,7,8,9-tetrahydro-5H-5,9-methanobenzo[7]annulen-7-il)oxy)propan-1-ol], the 50% inhibitory concentration (IC50) on recombinant human AChE (setting [8]) was above 100 µM; in assay [1] (setting [9]) it was 90 ± 24 µM. Regarding `CCOC1C[C@@H]2C[C@@H](c3ccccc32)[C@H]1c1ccc(OC)cc1` (stereo partly drawn) [endo-46, (5R,6S,9S)-7-Ethoxy-6-(4-methoxyphenyl)-6,7,8,9-tetrahydro-5H-5,9-methanobenzo-[7]annulene], the values for the IC50 (on recombinant human AChE (setting [8]); in assay [1] (setting [9])) were 270 ± 110 µM and above 500 µM, respectively.

As for `CCCOC1C[C@@H]2C[C@@H](c3ccccc32)[C@H]1c1ccc(OC)cc1` (stereo partly drawn) [endo-47, (5R,6S,9S)-6-(4-Methoxyphenyl)-7-propoxy-6,7,8,9-tetrahydro-5H-5,9-methanobenzo[7]annulene], the concentration for half-maximal inhibition (IC50) is above 100 µM at recombinant human AChE (setting [8]) and above 200 µM in assay [1] (setting [9]).
